Results published in patent US20040077879A1, “Bis (amino acid) molecular scaffolds” (priority 2002, published 2004).
Values after ≈ are worked out from the molar mass of the structure shown. Read-outs that look alike come from different tables or passages of the source.

Experiment: Solubility (dissolved, centrifuged, HPLC peak integrated relative to a tyrosine standard)
Assay type: physicochemical
Description: Pure three-mer scaffolds and five-mer scaffolds with extended rod-like structures in useful amounts have been synthesized. Three units of building block 1:pro4(2S4S) (Sequence 1) were assembled to form the molecular rod 19 using sequential solid phase synthesis on a 46 μmole scale (Scheme 4). The synthesis took place on an AM resin with a Rink Amide linker available from Novabiochem. […] After coupling three monomers, an Fmoc-Tyr(t-Bu)-OAt residue was coupled to increase the hydrophobicity of the final scaffold so that it would bind to a C18 column. After removal of the tyrosine Fmoc group, the amine terminus rapidly attacked the adjacent methyl ester to form a diketopiperazine […] (indicated in the sequence as cyclo-(Tyr)). The flexible oligomer 17 was cleaved from the resin and its mass was confirmed by reverse phase liquid chromatography with mass spectrometry (RP-LCMS). The carboxybenzyl (Cbz) groups were then removed by hydrogenolysis to obtain 18. The flexible oligomer 18 was converted into the rigidified scaffold 19 through the parallel formation of two diketopiperazine rings by exposure to 20% piperidine/DMF over 48 hours at 4° C.[25] […] Solubility was measured by dissolving the compound in 0.1% TFA, centrifuging it, injecting the solution into an HPLC and integrating the resulting peak relative to a tyrosine standard. […]

For `NC(=O)[C@@H]1C[C@@]2(CN1)NC(=O)[C@@H]1C[C@@]3(CN1C2=O)NC(=O)[C@@H]1C[C@@]2(CN1C3=O)NC(=O)[C@H](Cc1ccc(O)cc1)NC2=O` [scaffold 19], the solubility (water, read-out: soluble in water) was > 5000 µg/mL.
Molecule `COC(=O)[C@]1(N)C[C@H]2C(=O)N[C@]3(C[C@H]4C(=O)N[C@]5(C[C@H]6C(=O)N[C@]7(C[C@H]8C(=O)N[C@@]9(CN[C@H](C(=O)N[C@@H](Cc%10ccc(O)cc%10)C(N)=O)C9)C(=O)N8C7)C(=O)N6C5)C(=O)N4C3)C(=O)N2C1` [scaffold 20] has a solubility (10% D2O/H2O, unpurified material, read-out: soluble in 10% D2O/H2O) of 5000 µg/mL (≈ 5.54 mM).
